Measured values published in patent US10655163B2, “Methods, kits, and systems for multiplexed detection of target molecules and uses thereof” (THE GENERAL HOSPITAL CORPORATION, priority 2013, dated 2020).
“Also recorded” adds a separate entry of the source.

Assays:
[1] = test system: four human cancer cell lines; assay: Proteomic profiling of olaparib and cisplatin treatments; type: cell-based; conditions: FIGS. 15C-15D
Procedure: Proteomic profiling of olaparib and cisplatin treatments was performed for four human cancer cell lines, showing varying drug sensitivities as measured by viability assays (FIGS. 14A-14B and FIG. 15A).
Drug treatments of cell lines. To test the effect of drug treatment on protein expression levels, the cell lines were treated with a number of different chemotherapeutic or molecularly targeted drugs. […] DNA-damaging agents olaparib and cisplatin were applied to cells for 3 days. Changes in protein expression levels were compared to medium controls under identical conditions but without drug treatment.
Data analysis: calculating proteomic expression profiles. Protein expression profiles were extracted from raw data as follows. First, raw DNA counts were normalized via the mean of the internal NanoString positive controls, which account for hybridization efficiency. […]
Correlation between single-cell analysis and bulk measurement was calculated in GraphPad Prism. Spearman r values were calculated without assuming a normal, consistent distribution. Two-sided P values were calculated, where significant markers were identified by comparing two groups (for example, treated versus untreated) in Prism and performing pairwise t tests with an FDR of 0.2 for multiple test correction error. […] Class separability was measured by the Bhattacharya distance.

[2] = test system: HT1080 fibrosarcoma cell lines; assay: Taxol dose response screen in HT1080 cells, ABCD protein marker profiling; type: cell-based, human; conditions: different doses of taxol
Source text: Having established feasibility of inter- and intrapatient analyses in clinical samples, it was next sought to explore the feasibility of monitoring cancer treatment over time. To this end, it was first sought to determine if known pathway responses to different drug treatments could be discriminated. […]. […] Notable examples include pS6RP for targeted treatments, and pH2A.X, pATM/ATR (phospho-ataxia telangiectasia mutated/ATM- and Rad3-related) substrate, and cleaved PARP for DNA-damaging agents. Unexpected results, such as epigenetic histone modifications after treatment with a phosphatidylinositol 3-kinase inhibitor (PI3Ki) was also found (FIG. 15E). For additional in vitro validation of treatment, HT1080 fibrosarcoma cell lines were treated with four different doses of taxol.
To evaluate the assay's ability to measure even small marker changes, HT1080 human fibrosarcoma cells were treated with taxol at […] different doses. Marker changes at high doses were compared to marker changes quantified by an independent immunofluorescence screen (FIG. 16A). […] These in vitro studies established that the marker panel could indeed measure pathway changes in response to varying drug mechanisms; furthermore, these changes could be detected in a sensitive, dose-dependent manner.
Immunofluorescence. […]

N.N.[Cl][Pt][Cl] [cisplatin] was tested, and the “changes in DNA damage and apoptosis markers” value [1] was “degradation of Bim and up-regulation of pERK”.
With CC(=O)O[C@H]1C(=O)[C@@]2(C)[C@H]([C@H](OC(=O)c3ccccc3)[C@]3(O)C[C@H](OC(=O)[C@H](O)[C@@H](NC(=O)c4ccccc4)c4ccccc4)C(C)=C1C3(C)C)[C@]1(OC(C)=O)CO[C@@H]1C[C@@H]2O [taxol, paclitaxel] the “protein marker changes in response to taxol treatment” value [2] was “dose-response changes; also recorded: dose-response curves”.
